Legend:
[1] = In vitro maximal effect on [3H]-MK 801 binding to NMDA receptor as compared to a basal value of 100%
Glutamate NMDA receptor = experiment: In vitro concentration eliciting half-maximal effect on [3H]-MK 801 radioligand binding to NMDA receptor; assay type: protein-complex assay
[2] = target: T1, Glutamate receptor ionotropic, NMDA 1 (Rattus norvegicus, UniProt P35439); experiment: In vitro inhibitory activity to inhibit [3H]glycine binding to NMDA receptor
[3] = target: T1, Glutamate receptor ionotropic, NMDA 1; experiment: In vitro inhibitory activity to inhibit [3H]glycine binding to NMDA receptor; IA means inactive

SMILES	ME [1] [%]	IC50 [3]	also measured
N[C@@H]1CONC1=O	122	–	–
CC1ONC(=O)C1N (stereo not drawn)	–	Not Active	–
CC1NCC(=O)N1O (stereo not drawn)	–	–	IC50 [2]: 83 µM
CC1NCN(O)C1=O (stereo not drawn)	–	–	IC50 [2]: 78 µM
NC1CCONC1=O (stereo not drawn)	–	Not Active	–
O=C1C(CO)NCN1O (stereo not drawn)	–	–	IC50 [2]: 78 µM

Second part, led by results:

ME [1] [%]	IC50 [3]	SMILES	also measured
18	–	C[C@@H]1CN(O)C(=O)[C@@H]1N	EC50 (Glutamate NMDA receptor): 9.5 µM; IC50 [2]: 1.87 µM
169	–	N[C@H](CO)C(=O)O	–
–	Not Active	O=C1CNCN1	–
159	–	NCC(=O)O	–
146	–	O=C1CNCN1O	EC50 (Glutamate NMDA receptor): 4.33 µM
–	Not Active	O=C1CCCN1O	–
–	Not Active	CC1NC(C)N(O)C1=O (stereo not drawn)	–
–	Not Active	NC1CS(=O)(=O)NC1=O (stereo not drawn)	–
–	Not Active	O=C1CCNCN1O	–
